Series [1] deals with E. coli (ATCC 8739). The following applies: E. coli, from MIC. Here is the method:
(§1) The peptides were assessed for their antibacterial activity by determining the minimum inhibitory concentration (MIC) using the two-fold serial dilution method following the National Committee of Clinical Laboratory Standards, as previously described. Gram-negative (Acinetobacter baumannii (DSM 30007), Escherichia coli (ATCC 8739), Enterobacter cloacae (DSM 30054), Helicobacter pylori (ATCC 43504), Klebsiella pneumoniae (DSM 26371), Pseudomonas aeruginosa (ATCC 9027)) and Gram-positive bacteria (Bacillus subtilis (ATCC 6633), Enterococcus faecalis (DSM 2570), Enterococcus faecium (DSM 20477), Staphylococcus aureus (ATCC 6538)) were used for the antibacterial activity assays. In brief, 3 mL of Mueller–Hinton (MH) broth was inoculated with single clusters of the various bacterial strains and incubated overnight at 37 °C with agitation at 200 rpm. The next day, the bacterial solution was diluted with sterile MH by 1/100 and further incubated at 37 °C and 200 rpm until the bacteria reached the log phase growth (OD600nm around 0.6). The bacterial suspension was then adjusted to a density of approximately 10^5 bacteria/mL, and 100 μL was added per well of 96-well microplates (Greiner BioOne, Les Ulis, France), followed by exposure to increasing concentrations of peptides (from 0 to 100 µM, 1:2 dilution). Plates were then incubated at 37 °C for 18-24 h under either aerobic (for A. baumannii, E. cloacae, E. coli, P. aeruginosa, B. subtilis, and S. aureus) or micro-aerobic conditions generated using GasPak units (for E. faecalis, E. faecium and, H. pylori). […] The optical density (OD) at 600nm was measured using a microplate reader (Biotek, Synergy Mx, Les Ulis, France) after the final incubation. All experiments were performed in triplicate (n = 3).

Series [2] has as its system E. faecalis (DSM 2570). The protocol:
as §1

In series [3] the test system is A. baumannii (DSM 30007). The following applies: A. baumannii, from MIC. Here is the method: as §1
Series [4] deals with E. faecium (DSM 20477). To be noted: E. faecium, from MIC. The protocol:
as §1

Series [5] has as its system K. pneumonia (DSM 26371). To be noted: K. pneumonia, from MIC. The protocol: as §1
Series [6] relates to P. aeruginosa (ATCC 9027). To be noted: P. aeruginosa, from MIC. Here is the method:
as §1

Series [7] concerns E. cloacae (DSM 30054). Here is the method: as §1
Series [8] has as its system Ovarian Cancer (A2780). Format: cell-based, human. The following applies: 48 h. The protocol: (§2) The antiproliferative activity of the peptides was evaluated, as previously described using human cancer cell lines (A549 (lung), A2780 (ovary), HepG-2 (liver), MCF-7 (breast), MiaPaCa-2 (pancreas), MNT-1 (skin), and PC-3 (prostate)) and normal human lung fibroblasts (IMR-90) or epithelial cells (BEAS-2B). The cells were cultured in DMEM supplemented with 10% FBS, 1% L-glutamine, and 1% antibiotics at 37 °C in a 5% CO2 incubator. For the antiproliferative assay, cells were seeded in 96-well plates at approximately 3000 cells/well. Twenty-four hours later, cells were treated with increasing concentrations of peptides (1:2 serial dilution from 100 µM to 0 µM) for 48 h. After treatment, the number of viable cells was determined using a resazurin-based assay, and the fluorescence intensity was measured with a microplate reader (Ex 530 nm/Em 590 nm). The IC50 values of the peptides (i.e., the concentrations causing 50% inhibition of cell proliferation) were determined using GraphPad® Prism 7 software. The experiments were performed in triplicate (n = 3). The cytotoxicity of the peptides was also evaluated using confluent/no-dividing cells, as previously described. Briefly, human cells were seeded onto 96-well plates at 20,000 cells/well. When they reached 80–90% confluence (after 24–48 h), cells were treated with escalating concentrations of peptides. After 48h incubation, cell viability was measured using a resazurin assay and CC50 (i.e., the concentrations causing 50% inhibition of cell viability) and determined using GraphPad® Prism 7 software. The experiments were performed in triplicate (n = 3).

The subject of series [9] is Pancreatic Cancer (MiaPaCa-2). Format: cell-based, human. The following applies: 48 h. The protocol:
as §2

The test system of series [10] is Lung Cancer (A549). Format: cell-based, human. To be noted: 48 h. Here is the method: as §2
For series [11], the system named is Breast Cancer (MCF-7). Format: cell-based, human. To be noted: 48 h. The protocol: as §2
Series [12] relates to Liver Cancer (HepG-2). Format: cell-based, human. The following applies: 48 h. The protocol:
as §2

Series [13] has as its system Prostate Cancer (PC-3). Format: cell-based, human. To be noted: 48 h. Here is the method: as §2
In series [14] the test system is Normal Lung Fibroblast (IMR-90). Format: cell-based, human. The following applies: 48 h. Here is the method:
as §2

Series [15] has as its system Skin Cancer (MNT-1). Format: cell-based, human. The following applies: 48 h. Here is the method:
as §2

A short description of series [16]: Circular dichroism, secondary structure (Bestsel). Format: physicochemical. The following applies: CD in 20 mM SDS. Here is the method: Circular dichroism of temporin SHa, [G10a]-SHa and newly synthesised second-generation analogs of [G10a]-SHa in 20 mM SDS are shown in Figure 2. In lipidic environments mimicked by SDS, peptides adopt an alpha helical structure due to their amphipathic nature. This structural feature is important for their antimicrobial activity, allowing for their insertion into bacterial membranes. The hydrophobic region of the peptide interacts with the hydrophobic portion of the lipid while the hydrophilic region remains exposed to the aqueous environment. The percentage of alpha helix, as well as the percentage of other secondary structures, was determined from CD data using Bestsel software (https://bestsel.elte.hu/index.php, (accessed on 22 June 2024)) (Table 3). Temporin-SHa (1) adopted a 49.5% α-helical structure, while its first-generation analog [G10a]-SHa (2) acquired a 82.4% alpha helical structure. The 84.6%, 88.7%, 4.7%, and 53.8% alpha helical structures were acquired for second-generation analogs 3, 4, 5, and 6, respectively.
The far-ultraviolet CD spectra were obtained using a JASCO J-810 spectropolarimeter (Jasco, Tokyo, Japan). In addition to this, the quartz cuvette of 10 mm path length was used. The temperature was maintained at 22 °C, and the output of the instrument was calibrated using D-(+)-10-camphorsulfonic acid. The peptides, which were present at a concentration of 1.0 mg/mL, were dissolved completely in 20 mM SDS at a concentration of 15 µM [21]. The instrument was set to record wavelengths ranging from 190 to 260 nm with a bandwidth of 2 nm. Ten consecutive scans (accumulations) were recorded for each spectrum at a rate of 50 nm/min, and the baseline was acquired under the same conditions.
On the technique in general: CD spectra are sensitive to the conformation of chiral molecules.

Series [17] has as its system Normal Lung Epithelium (BEAS-2B). Format: cell-based, human. To be noted: 48 h. The protocol: as §2

The text below walks through data of article PMC11350846, “Synthesis of Second-Generation Analogs of Temporin-SHa Peptide Having Broad-Spectrum Antibacterial and Anticancer Effects” (Antibiotics, 2024).

Where a SMILES comes first, the peptide text is derived from it. [ ]: non-standard residue; d: D form. Some results are limits rather than exact numbers.

In general, IC50 refers to the concentration that inhibits the measured activity by half. High values mean lower potency, low ones higher potency.

For the compound `CC[C@H](C)[C@H](NC(=O)CNC(=O)[C@H](CO)NC(=O)[C@H](CC(C)C)NC(=O)[C@@H](N)Cc1ccccc1)C(=O)N[C@H](C(=O)NCC(=O)N[C@@H](CCSC)C(=O)N[C@@H](CC(C)C)C(=O)N[C@@H](CCCCN)C(=O)N[C@@H](CCCCN)C(=O)N[C@@H](CC(C)C)C(=O)N[C@@H](Cc1ccccc1)C(N)=O)C(C)C` [[G10K]-SHa (4), H-Phe^1-Leu^2-Ser^3-Gly^4-IIe^5-Val^6-Gly^7-Met^8-Leu^9-L-Lys^10-Lys^11-Leu^12-Phe^13-NH2] (H-FLSGIVGMLKKLF-NH2), the “fold activity compared to [G10a]-SHa (2)” value in series [1] was “at least four times more active”; in [3], “at least four times more active”; in series [4] it was “at least 16”; in [5] it was “at least four times more active”; in series [6] it was “at least four times more active”; in series [7] (E. cloacae, from MIC), “about eight times more active”. Further, the “fold increase in activity relative to the parent peptide (1)” value was 4 in series [2] (Enterococcus faecalis DSM 2570, from MIC) and 4 in series [7] (Enterobacter cloacae DSM 30054, from MIC). In addition, the half-inhibitory concentration (IC50) in series [8] came to 21.8 ± 3.2 µM; in [9] it was 61.4 ± 4.1 µM; in [10] it was 32.6 ± 2.4 µM; in series [11] it was 37.4 ± 11.8 µM; in series [12], 64.3 ± 3.5 µM; in series [13] it was 11.7 ± 1.2 µM. Also, the IC50 in series [14] was over 100 µM; in series [15], 21.7 ± 6.9 µM. In series [16], this compound came in with an Antiparallel of 11.30%. For the same compound, the “Helix (alpha helical structure)” value is 88.70% in [16] and 88.7% in series [16] (listed as 4). In series [16], the Others came to 0.00%. The compound further displayed a Parallel in series [16] of 0.00%. The Turn in series [16] amounted to 0.00%.

Consider `CC[C@H](C)[C@H](NC(=O)CNC(=O)[C@H](CO)NC(=O)[C@H](CC(C)C)NC(=O)[C@@H](N)Cc1ccccc1)C(=O)N[C@H](C(=O)NCC(=O)N[C@@H](CCSC)C(=O)N[C@@H](CC(C)C)C(=O)N[C@H](Cc1ccccc1)C(=O)N[C@@H](CCCCN)C(=O)N[C@@H](CC(C)C)C(=O)N[C@@H](Cc1ccccc1)C(N)=O)C(C)C` [[G10f]-SHa (3), H-Phe^1-Leu^2-Ser^3-Gly^4-IIe^5-Val^6-Gly^7-Met^8-Leu^9-D-Phe^10-Lys^11-Leu^12-Phe^13-NH2] (H-FLSGIVGML[dF]KLF-NH2), for which, in series [4], the “fold activity compared to [G10a]-SHa (2)” value worked out at 32. The half-inhibitory concentration (IC50) came to 6.6 ± 0.5 µM in series [8]; 6.8 ± 0.4 µM in series [9]; 7.8 ± 0.3 µM in [17]; 3.6 ± 0.7 µM in series [10]; 4.4 ± 1.3 µM in series [11]; 19.8 ± 1.7 µM in series [12]. In addition, the IC50 was 4.9 ± 0.3 µM in series [13], 14.2 ± 0.6 µM in series [14] and 5.5 ± 0.4 µM in [15]. Further, in series [16], the Antiparallel is 15.40%. For the same compound, the “Helix (alpha helical structure)” value in series [16] turned out to be 84.60%; in series [16] (listed as 3), 84.6%. The compound further returned an Others in series [16] of 0.00%. In addition, the Parallel in series [16] worked out at 0.00%. The compound also came in with a Turn in series [16] of 0.00%.

Take `CC[C@H](C)[C@H](NC(=O)CNC(=O)[C@H](CO)NC(=O)[C@H](CC(C)C)NC(=O)[C@@H](N)Cc1ccccc1)C(=O)N[C@H](C(=O)NCC(=O)N[C@@H](CCSC)C(=O)N[C@@H](CC(C)C)C(=O)N[C@H](Cc1ccc(O)cc1)C(=O)N[C@@H](CCCCN)C(=O)N[C@@H](CC(C)C)C(=O)N[C@@H](Cc1ccccc1)C(N)=O)C(C)C` [[G10y]-SHa (6), H-Phe^1-Leu^2-Ser^3-Gly^4-IIe^5-Val^6-Gly^7-Met^8-Leu^9-D-Tyr^10-Lys^11-Leu^12-Phe^13-NH2] (H-FLSGIVGML[dY]KLF-NH2): the “fold activity compared to [G10a]-SHa (2)” value was “twice the activity” in series [2] (E. faecalis, from MIC) and “at least eight times more activity” in series [4]. Besides, the concentration for half-maximal inhibition (IC50) turned out to be 23.2 ± 3.1 µM in series [8]; 23.9 ± 3.9 µM in [9]; 13.1 ± 3.6 µM in [11]; 40.3 ± 7.2 µM in series [12]; 19.3 ± 1.2 µM in [13]; 44.1 ± 8.1 µM in [15]. In addition, the Antiparallel in series [16] was 15.10%. Besides, the “Helix (alpha helical structure)” value in [16] was found to be 53.80%; in series [16] (listed as 6), 53.8%. In [16], this compound came in with an Others of 0.00%. Besides, in series [16], the Parallel was 31.10%. In addition, in series [16], the Turn came to 0.00%.
